Assay results published in patent US6518012B1, “Method for regulating the expression of MHC antigens and CD40 by inhibitors of histone deacetylation” (Health Research, Inc., priority 1999, dated 2003).

Test system: MHC class I
Assay: Cell surface MHC class I by flow cytometry on Colon 26 and J558
Format: cell-based, mouse
Procedure: To determine the effect of TSA on cell surface protein expression, the J558 cell line was subjected to flow cytometric analyses as follows. Flow cytometric analyses were conducted by standard methods using cells fixed with 1.0% paraformaldehyde and analyzed on the FACScan (Becton Dickinson). Cell cycle analyses were carried out by flow cytometry with PI staining of genomic DNA. Cells were fixed and permeablized in methanol, treated with RNaseA and analyzed for DNA content by determination of FL3-area on the FACScan. The FL3-area data were analyzed with the ModFit software for determination of the percent cells in each phase of the cell cycle. In some cases, fluorescein isothiocyanate (FITC)-conjugated antibody staining was conducted prior to PI treatment and surface staining was analyzed as a function of cell cycle phase. Apoptosis was analyzed by staining with annexin-V directly conjugated with either FITC or RPE and by sub-G0 analysis of DNA staining. Expression levels without treatment are shown as shaded peaks, IFNγ treated cell expression is plotted by a thin line while the level of expression on TSA treated cells is represented by a heavy line. Isotype controls were analyzed and, in each case, fell on or below the levels shown for control cells. […] Since all cells were positive for MHC class I expression, the number under the histogram represents -fold change of expression calculated from the mean channel-shift after treatment relative to untreated cells. […] Of the 13 markers analyzed on J558 cells, only class I, II and CD40 were enhanced, while levels of several non-expressed antigens were not elicited (including CD25, B7 integrin, CD40L, H2K^k and IA^k) while other markers, which were expressed, were not altered (including CD44, CD54, CD80, CD86 and CD119) by TSA treatment. […] The separation of control and IFNγ curves in the CD40, J558 experiment depicted in FIG. 8 represents a mean channel fluorescence difference of only 1.3 and was not seen on independent replicates of the experiment. […]

**Q.** Which “MHC class I expression, response to IFNγ” value (J558, IFNγ 100 U/ml) does the source give for “IFNγ: gamma-interferon, cytokine used as comparator at 100 U/ml” here?
**A.** unresponsive

**Q.** How did the “MHC class I expression on cell surface” value (Colon 26 and J558, flow cytometry) turn out when CC(/C=C/C(=O)NO)=C\[C@@H](C)C(=O)c1ccc(N(C)C)cc1 [TSA, Trichostatin A] was run?
**A.** enhanced

**Q.** And the “class I expression as a function of cell cycle phase” value (J558, double staining with PI and antibody to class I)?
**A.** induced expression throughout the cell cycle
